Test results published in PubChem BioAssay AID504628 (Vanderbilt High Throughput Screening Facility, 2011).

Target: Voltage-dependent T-type calcium channel subunit alpha-1H (Homo sapiens) (UniProt O95180)
Experiment: electrophysiology of T-type channel inhibitors – HEK293 cells, whole-cell recording, orthogonal assay for T-type calcium channel inhibitor project, late-stage follow-up (AID 504628)
Conditions: HEK293-Cav3.2 whole-cell patch clamp, Ba2+ current; at 1 µM

Voltage-dependent T-type calcium channel subunit alpha-1H (Homo sapiens), sequence (O95180 whole entry, looked up): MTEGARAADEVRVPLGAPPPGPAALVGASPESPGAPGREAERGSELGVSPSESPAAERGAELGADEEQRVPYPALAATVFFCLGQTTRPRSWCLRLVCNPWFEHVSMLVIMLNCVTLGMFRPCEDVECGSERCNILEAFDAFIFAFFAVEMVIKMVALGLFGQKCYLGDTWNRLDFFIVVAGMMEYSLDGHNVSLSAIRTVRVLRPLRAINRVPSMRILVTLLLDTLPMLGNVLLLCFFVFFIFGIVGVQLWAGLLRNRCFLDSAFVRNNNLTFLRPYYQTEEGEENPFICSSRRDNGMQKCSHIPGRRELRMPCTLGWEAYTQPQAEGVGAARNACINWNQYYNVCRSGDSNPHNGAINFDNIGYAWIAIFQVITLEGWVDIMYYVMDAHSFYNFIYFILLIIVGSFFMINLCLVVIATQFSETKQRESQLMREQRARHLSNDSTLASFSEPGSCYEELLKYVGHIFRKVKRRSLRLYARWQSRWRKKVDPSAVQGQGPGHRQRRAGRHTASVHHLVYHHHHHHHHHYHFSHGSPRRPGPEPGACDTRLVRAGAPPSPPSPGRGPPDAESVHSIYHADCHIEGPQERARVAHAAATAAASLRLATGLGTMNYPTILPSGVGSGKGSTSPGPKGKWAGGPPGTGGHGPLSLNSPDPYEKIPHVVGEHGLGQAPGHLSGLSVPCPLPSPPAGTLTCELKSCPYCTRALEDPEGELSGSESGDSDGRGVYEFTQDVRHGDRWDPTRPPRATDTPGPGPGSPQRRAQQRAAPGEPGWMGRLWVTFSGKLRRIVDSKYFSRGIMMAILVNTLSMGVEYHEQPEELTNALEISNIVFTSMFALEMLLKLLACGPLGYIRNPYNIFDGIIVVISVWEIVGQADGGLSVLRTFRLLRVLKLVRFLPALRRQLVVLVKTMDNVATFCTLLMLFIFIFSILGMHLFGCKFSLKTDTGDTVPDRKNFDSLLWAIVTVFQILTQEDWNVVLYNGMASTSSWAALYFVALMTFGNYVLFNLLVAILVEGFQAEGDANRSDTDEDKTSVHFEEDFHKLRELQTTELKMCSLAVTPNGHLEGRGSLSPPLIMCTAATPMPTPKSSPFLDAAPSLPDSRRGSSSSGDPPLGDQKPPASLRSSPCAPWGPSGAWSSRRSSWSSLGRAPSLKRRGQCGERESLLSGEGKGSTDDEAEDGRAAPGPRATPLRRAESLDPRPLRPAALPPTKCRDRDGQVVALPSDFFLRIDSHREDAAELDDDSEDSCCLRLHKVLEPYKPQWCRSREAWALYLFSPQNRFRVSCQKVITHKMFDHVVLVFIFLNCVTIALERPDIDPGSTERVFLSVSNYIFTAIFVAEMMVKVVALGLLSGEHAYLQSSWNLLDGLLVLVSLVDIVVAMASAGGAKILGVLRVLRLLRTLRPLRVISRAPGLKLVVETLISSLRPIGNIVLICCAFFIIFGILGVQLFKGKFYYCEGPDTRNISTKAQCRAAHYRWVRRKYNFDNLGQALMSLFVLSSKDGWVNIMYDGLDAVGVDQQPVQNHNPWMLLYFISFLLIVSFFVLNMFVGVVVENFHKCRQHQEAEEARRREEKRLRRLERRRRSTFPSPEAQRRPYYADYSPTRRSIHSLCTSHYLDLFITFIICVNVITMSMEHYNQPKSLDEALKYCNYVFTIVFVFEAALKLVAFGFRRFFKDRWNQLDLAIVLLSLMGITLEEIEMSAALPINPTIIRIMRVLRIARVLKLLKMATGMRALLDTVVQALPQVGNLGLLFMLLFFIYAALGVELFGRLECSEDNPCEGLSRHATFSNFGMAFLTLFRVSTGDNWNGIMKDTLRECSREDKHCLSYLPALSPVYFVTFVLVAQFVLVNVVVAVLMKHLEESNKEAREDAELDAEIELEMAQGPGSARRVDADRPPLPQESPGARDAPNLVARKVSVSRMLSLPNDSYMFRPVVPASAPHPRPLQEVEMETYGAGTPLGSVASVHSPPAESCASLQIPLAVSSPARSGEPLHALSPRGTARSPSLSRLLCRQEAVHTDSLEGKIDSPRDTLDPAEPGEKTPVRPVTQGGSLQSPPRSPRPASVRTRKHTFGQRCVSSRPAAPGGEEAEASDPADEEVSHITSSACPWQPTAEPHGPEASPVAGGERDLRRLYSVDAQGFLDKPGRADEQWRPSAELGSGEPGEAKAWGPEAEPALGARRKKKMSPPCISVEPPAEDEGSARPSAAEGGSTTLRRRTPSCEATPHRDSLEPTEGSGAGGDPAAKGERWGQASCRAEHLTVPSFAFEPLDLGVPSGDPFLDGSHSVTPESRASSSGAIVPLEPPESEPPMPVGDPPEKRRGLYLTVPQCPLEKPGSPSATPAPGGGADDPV

- current: -1010 pA
Structure (SMILES): CC(C)(C)CCN1C[C@@H]2C(CNC(=O)c3cc(Cl)cc(Cl)c3)[C@@H]2C1 (stereo partly specified)
